# Experimental data reported in patent publication US20230339952A1, “MACROCYCLIC HETEROCYCLES AND USES THEREOF” (Kumquat Biosciences Inc., priority 2022, published 2023).
# Biological target: SOS1 (Homo sapiens (Human), UniProt Q07889)
# Assay: Ras-SOS interaction assay (HTRF), K-Ras G13D utilized
# Type: binding
# Conditions: K-Ras G13D, read-out: SOS1 IC50
# Text: For example, the equilibrium interaction of human SOS1 (hSOS1) with human wildtype Kras or K-Ras mutant (e.g., hK-Ras G12C mutant, or hK-Ras G12C) can be assessed as a proxy or an indication for a subject compound's ability to inhibit SOS. Detection of such interaction is achieved by measuring homogenous time-resolved fluorescence resonance energy transfer (HTRF) from (i) a fluorescence resonance energy transfer (FRET) donor (e.g., antiGST-Europium) that is bound to GST-tagged K-Ras G12C to (ii) a FRET acceptor (e.g., anti-6His-XL665) bound to a His-tagged hSOS1.
# A Ras working solution is prepared in assay buffer containing typically 10 nM of the protein construct (e.g., GST-tagged hK-Ras G12C) and 2 nM of the FRET donor (e.g., antiGST-Eu(K) from Cisbio, France). A SOS1 working solution is prepared in assay buffer containing typically 10 nM of the protein construct (e.g., His-hSOS1) and 10 nM of the FRET acceptor (e.g., anti-6His-XL665 from Cisbio, France). An inhibitor control solution is prepared in assay buffer containing 10 nM of the FRET acceptor without the SOS1 protein.
# A fixed reaction mixture with or without test compound is transferred into a 384-well plate. Ras working solution is added to all wells of the test plate. SOS1 working solution is added to all wells except for those that are subsequently filled with the inhibitor control solution. […] The ratiometric data (i.e., emission 2 divided by emission 1) is used to calculate IC50 values against SOS1 using GraphPad Prism (GraphPad software).
# Chain of SOS1 (Q07889 564-1049): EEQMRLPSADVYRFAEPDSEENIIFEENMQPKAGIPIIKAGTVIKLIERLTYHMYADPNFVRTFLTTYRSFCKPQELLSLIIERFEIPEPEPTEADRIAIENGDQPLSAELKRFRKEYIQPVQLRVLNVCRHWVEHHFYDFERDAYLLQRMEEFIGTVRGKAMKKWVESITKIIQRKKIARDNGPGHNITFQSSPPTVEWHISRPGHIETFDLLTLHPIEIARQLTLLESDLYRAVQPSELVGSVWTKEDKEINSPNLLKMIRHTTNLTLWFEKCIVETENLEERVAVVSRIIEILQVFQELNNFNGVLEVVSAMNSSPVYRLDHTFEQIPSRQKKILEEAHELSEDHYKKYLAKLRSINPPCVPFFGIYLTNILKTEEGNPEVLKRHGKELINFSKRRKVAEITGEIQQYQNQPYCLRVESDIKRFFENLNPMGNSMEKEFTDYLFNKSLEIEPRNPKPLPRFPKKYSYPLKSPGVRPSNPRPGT
row,Structure (SMILES),IC50 [µM]
1,"Cc1nc2c3cc(C4(C#N)CC4)c(=O)n(c3n1)CCCC/C=C\CC(C)(O)C(F)(F)c1cccc(c1)[C@@H](C)N2 (stereo partly drawn) [Compound 13, 1-((3R,Z)-5,5-difluoro-6-hydroxy-1^2,3,6-trimethyl-1^7-oxo-1^7,1^8-dihydro-2-aza-1(4,8)-pyrido[2,3-d]pyrimidina-4(1,3)-benzenacyclotridecaphan-8-en-1^6-yl)cyclopropane-1-carbonitrile]",0.1 to 5
2,"COc1cc2nc(C)nc3c2cc1OCCOCCOCCOCCNC(=O)CCOCCNCc1ccccc1-c1cccc(c1)[C@@H](C)N3 [Compound 14, (R)-5^7-methoxy-5^2,3-dimethyl-6,9,12,15,22-pentaoxa-4,18,25-triaza-5(4,6)-quinazolina-1(1,2),2(1,3)-dibenzenacyclohexacosaphan-19-one]",0.1 to 5
3,"Cc1nc2c3cc(C4(C#N)CC4)c(=O)n(c3n1)CCCCCC/C=C\CC(C)(O)C(F)(F)c1cccc(c1)[C@@H](C)N2 (stereo partly drawn) [Compound 18, 1-((3R,Z)-5,5-difluoro-6-hydroxy-1^2,3,6-trimethyl-1^7-oxo-1^7,1^8-dihydro-2-aza-1(4,8)-pyrido[2,3-d]pyrimidina-4(1,3)-benzenacyclopentadecaphan-8-en-1^6-yl)cyclopropane-1-carbonitrile]",0.1 to 5
4,"C[C@H]1Nc2nc(=O)n(c3c2cc(C2(C#N)CC2)c(=O)n3C)CCCCOCC(F)(F)c2cccc1c2F [Compound 37, 1-((3R,E)-4^2,5,5-trifluoro-1^8,3-dimethyl-1^2,1^7-dioxo-1^1,1^2,1^7,1^8-tetrahydro-7-oxa-2-aza-1(4,1)-pyrido[2,3-d]pyrimidina-4(1,3)-benzenacycloundecaphane-1^6-yl)cyclopropane-1-carbonitrile]",0.1 to 5
5,"C[C@H]1Nc2nc(=O)n(c3c2cc(C2(C#N)CC2)c(=O)n3C)C/C=C\COCC(F)(F)c2cccc1c2F [Compound 66, 1-((1^3E,3R,9Z)-4^2,5,5-trifluoro-1^8,3-dimethyl-1^2,1^7-dioxo-1^1,1^2,1^7,1^8-tetrahydro-7-oxa-2-aza-1(4,1)-pyrido[2,3-d]pyrimidina-4(1,3)-benzenacycloundecaphan-9-en-1^6-yl)cyclopropane-1-carbonitrile]",0.1 to 5
6,"C[C@H]1Nc2nc(=O)n(c3c2cc(C2(C#N)CC2)c(=O)n3C)CCCC/C=C\COCC(F)(F)c2cccc1c2F [Compound 82, 1-((1^3E,3R,9Z)-4^2,5,5-trifluoro-1^8,3-dimethyl-1^2,1^7-dioxo-1^1,1^2,1^7,1^8-tetrahydro-7-oxa-2-aza-1(4,1)-pyrido[2,3-d]pyrimidina-4(1,3)-benzenacyclotetradecaphan-9-en-1^6-yl)cyclopropane-1-carbonitrile]",0.1 to 5
7,"COc1cc2nc(C)nc3c2cc1OCCOCCOCCOCCOCCNCc1ccccc1-c1cccc(c1)C(C)N3 (centres unmarked) [Compound 99, 5^7-methoxy-5^2,3-dimethyl-6,9,12,15,18-pentaoxa-4,21-diaza-5(4,6)-quinazolina-1(1,2),2(1,3)-dibenzenacyclodocosaphane]",0.1 to 5
8,"C[C@H]1Nc2nc(=O)n(c3c2cc(C2(C#N)CC2)c(=O)n3C)CC/C=C\COCC(F)(F)c2cccc1c2F [Compound 102, 1-((1^3E,3R,9Z)-4^2,5,5-trifluoro-1^8,3-dimethyl-1^2,1^7-dioxo-1^1,1^2,1^7,1^8-tetrahydro-7-oxa-2-aza-1(4,1)-pyrido[2,3-d]pyrimidina-4(1,3)-benzenacyclododecaphan-9-en-1^6-yl)cyclopropane-1-carbonitrile]",0.1 to 5

# The remaining lines, values ahead:
row,IC50 [µM],Structure (SMILES)
1,0.1 to 5,"Cc1nc2c3cc(C4(C#N)CC4)c(=O)n(c3n1)CCC/C=C\COCC(F)(F)c1cccc(c1F)[C@@H](C)N2 [Compound 1, 1-((3R,Z)-4^2,5,5-trifluoro-1^2,3-dimethyl-1^7-oxo-1^7,1^8-dihydro-7-oxa-2-aza-1(4,8)-pyrido[2,3-d]pyrimidina-4(1,3)-benzenacyclotridecaphan-9-en-16-yl)cyclopropane-1-carbonitrile]"
2,0.1 to 5,"C[C@H]1Nc2nc(=O)n(c3c2cc(C2(C#N)CC2)c(=O)n3C)CCC/C=C\COCC(F)(F)c2cccc1c2F [Compound 2, 1-((1^3E,3R,9Z)-4^2,5,5-trifluoro-1^8,3-dimethyl-1^2,1^7-dioxo-1^1,1^2,1^7,1^8-tetrahydro-7-oxa-2-aza-1(4,1)-pyrido[2,3-d]pyrimidina-4(1,3)-benzenacyclotridecaphan-9-en-1^6-yl)cyclopropane-1-carbonitrile]"
3,0.1 to 5,"C[C@H]1Nc2nc(=O)n(c3c2cc(C2(C#N)CC2)c(=O)n3C)CCCCCOCC(F)(F)c2cccc1c2F [Compound 5, 1-((3R,E)-4^2,5,5-trifluoro-1^8,3-dimethyl-1^2,1^7-dioxo-1^1,1^2,1^7,1^8-tetrahydro-7-oxa-2-aza-1(4,1)-pyrido[2,3-d]pyrimidina-4(1,3)-benzenacyclododecaphane-1^6-yl)cyclopropane-1-carbonitrile]"
4,0.1 to 5,"Cc1nc2c3cc(C4CCS(=O)(=O)CC4)c(=O)n(c3n1)CCCCCCCN1CCC(CC1)C(F)(F)c1cccc(c1)[C@@H](C)N2 [Compound 7, (4R)-6^6-(1,1-dioxidotetrahydro-2H-thiopyran-4-yl)-2,2-difluoro-6^2,4-dimethyl-6^7,6^8-dihydro-5-aza-6(4,8)-pyrido[2,3-d]pyrimidina-1(4,1)-piperidina-3(1,3)-benzenacyclotridecaphan-6^7-one]"
5,< 0.1,"COc1cc2nc(C)nc3c2cc1OCCOCCOCCOCCOCCNC(=O)CCCCNCc1ccccc1C1=CC=C(S1)C(C)N3 (centres unmarked) [Compound 45, 5^7-methoxy-5^2,3-dimethyl-6,9,12,15,18-pentaoxa-4,21,27-triaza-5(4,6)-quinazolina-2(2,5)-thiophena-1(1,2)-benzenacyclooctacosaphan-22-one]"
6,< 0.1,"COc1cc2nc(C)nc3c2cc1OCCOCCOCCOCCOCCNC(=O)CCCNCc1ccccc1C1=CC=C(S1)C(C)N3 (centres unmarked) [Compound 51, 5^7-methoxy-5^2,3-dimethyl-6,9,12,15,18-pentaoxa-4,21,26-triaza-5(4,6)-quinazolina-2(2,5)-thiophena-1(1,2)-benzenacycloheptacosaphan-22-one]"
7,< 0.1,"C[C@H]1Nc2ncnc3c2cc(N2CCS(=O)(=O)CC2)c(=O)n3CCCOCCCCN2CCC(CC2)C(F)(F)c2cccc1c2F [Compound 69, (4R)-6^6-(1,1-dioxidothiomorpholino)-3^2,2,2-trifluoro-4-methyl-6^7,6^8-dihydro-10-oxa-5-aza-6(4,8)-pyrido[2,3-d]pyrimidina-1(4,1)-piperidina-3(1,3)-benzenacyclotetradecaphan-6^7-one]"
8,< 0.1,"C[C@H]1Nc2ncnc3c2cc(C2CCS(=O)(=O)CC2)c(=O)n3CCNC(=O)CCCN2CCC(CC2)C(F)(F)c2cccc1c2 [Compound 75, (4R)-6^6-(1,1-dioxidotetrahydro-2H-thiopyran-4-yl)-2,2-difluoro-4-methyl-6^7,6^8-dihydro-5,9-diaza-6(4,8)-pyrido[2,3-d]pyrimidina-1(4,1)-piperidina-3(1,3)-benzenacyclotridecaphane-6^7,10-dione]"
9,< 0.1,"C[C@H]1Nc2ncnc3c2cc(C2(C#N)CC2)c(=O)n3CC(=O)N(C)CCCCN2CCC(CC2(C)C)C(F)(F)c2cccc1c2 (stereo partly drawn) [Compound 93, 1-((4R)-2,2-difluoro-1^2,1^2,4,9-tetramethyl-6^7,8-dioxo-6^7,6^8-dihydro-5,9-diaza-6(4,8)-pyrido[2,3-d]pyrimidina-1(4,1)-piperidina-3(1,3)-benzenacyclotridecaphane-6^6-yl)cyclopropane-1-carbonitrile]"
